Structures can show the parent of a compound that is named as a salt. Where two headings read alike, the source gives them in different places.
Tests used:
[1] = tested on: GFP-labeled iPSC-derived human cortical glutamatergic neurons; experiment: cells; conditions: Neuron, 48 h
in vitro = conditions: PAMPA, PAMPA-BBB Pe
[2] = tested on: GFP-labeled iPSC-derived human cortical glutamatergic neurons; experiment: cells; format: cell-based; conditions: Homo sapiens, Neuron
[3] = Table S2: compounds exhibiting moderate to high PAMPA-BBB permeability
[4] = read-out: Viability AC50 (48hr)
[5] = Table S1, 60 min, room temperature, 0.05 mM
[6] = Table S1, total neurite length, 48 hr, head prints no unit, µM per Table 1 and Fig. 5, read-out: TNL AC50 (48 hr)
[7] = Table 1, 60 min, room temperature, 0.05 mM
[8] = read-out: Viability AC50 (48 h)
[9] = total neurite length, 48 h treatment, read-out: TNL AC50 (48 h)

| SMILES | PAMPA-BBB Pe [3] | AC50 [1, 4] [µM] | Papp (in vitro; [5]) [×10⁻⁶ cm/s] | AC50 [2, 6] [µM] | PAMPA-BBB Pe [7] | AC50 [1, 8] [µM] | AC50 [2, 9] [µM] | PAMPA-BBB Pe [5] | Papp (in vitro; [3]) [×10⁻⁶ cm/s] | PAMPA-BBB Pe (PAMPA) | Papp (in vitro) [×10⁻⁶ cm/s] | AC50 ([2]; 48 h, read-out: TNL AC50 (48 hr)) [µM] |
| --- | --- | --- | --- | --- | --- | --- | --- | --- | --- | --- | --- | --- |
| COc1ccc(/C=C/C(=O)c2ccc(O)cc2O)cc1 [2',4'-DIHYDROXY-4-METHOXYCHALCONE] | 357 10^-6 cm/sec | 21.5 | 357 | 37.2 | – | – | – | – | – | – | – | – |
| O=c1cc(-c2ccc(O)c(O)c2)oc2ccccc12 [3',4'-DIHYDROXYFLAVONE] | 94 10^-6 cm/sec | 19.8 | 93.9 | 15.7 | – | – | – | – | – | – | – | – |
| O=c1c(O)c(-c2ccccc2)oc2ccccc12 [3-Hydroxyflavone] | – | – | 181 | – | 181.17 10 × 10^− 6 cm/sec | 1.83 | 2.97 | – | – | – | – | – |
| COc1ccc(C(=O)/C=C/c2ccccc2)cc1 [4'-METHOXYCHALCONE] | >1000 10^-6 cm/sec | 23.6 | – | 23.6 | – | – | – | >1000 10^-6 cm/sec | – | – | – | – |
| CN[C@@H]1C[C@H]2O[C@@](C)([C@@H]1OC)n1c3ccccc3c3c4c(c5c6ccccc6n2c5c31)C(=O)N[C@H]4O [7-hydroxystaurosporine (UCN-01), 7-hydroxystaurosporine] | 158 10^-6 cm/sec | 7.92 | 158 | 5.74 | – | – | – | – | – | – | – | – |
| CCC(=O)CCCCC[C@@H]1NC(=O)[C@H]2CCCCN2C(=O)[C@H]([C@@H](C)CC)NC(=O)[C@H](Cc2cn(OC)c3ccccc23)NC1=O [Apicidin] | 56 10^-6 cm/sec | 2.17 | 55.8 | 4.84 | 55.75 10 × 10^− 6 cm/sec | 2.17 | 4.84 | – | – | – | – | – |
| O=c1cc(-c2ccc(O)cc2)oc2cc(O)cc(O)c12 [Apigenin] | 36 10^-6 cm/sec | 37.2 | 36.2 | 35.9 | – | – | – | – | – | – | – | – |
| CC[C@H](C)[C@H]1O[C@]2(C=C[C@@H]1C)C[C@@H]1C[C@@H](C/C=C(\C)[C@@H](O[C@H]3C[C@H](OC)[C@@H](O[C@H]4C[C@H](OC)[C@@H](O)[C@H](C)O4)[C@H](C)O3)[C@@H](C)/C=C/C=C3\CO[C@@H]4[C@H](O)C(C)=C[C@@H](C(=O)O1)[C@]34O)O2 [Avermectin B1A] | – | 17.2 | 35 | 25.9 | – | – | – | – | – | – | – | – |
| O=C1NC(=O)C(c2c[nH]c3ccccc23)=C1c1c[nH]c2ccccc12 [Bisindolylmaleimide IV] | – | 13.9 | > 654 | 10.6 | – | – | – | – | – | – | – | – |
| O=C(/C=C/c1ccc(O)c(O)c1)OCCc1ccccc1 [Caffeic acid phenethyl ester] | – | 24.8 | – | 22.2 | – | – | – | >1000 10^-6 cm/sec | – | – | – | – |
| CCCCCc1cc(O)c2c(c1)OC(C)(C)c1ccc(C)cc1-2 [Cannabinol] | – | 35.2 | 20.6 | 28.2 | – | – | – | – | 21 | – | – | – |
| CC(C)c1cc2c(c(O)c1O)[C@@]13CCCC(C)(C)[C@@H]1C[C@@H]2OC3=O [Carnosol] | 33 10^-6 cm/sec | 26.4 | 32.8 | 17.8 | – | – | – | – | – | – | – | – |
| CC1=C(O)C(=O)C=C2C1=CC=C1[C@@]2(C)CC[C@@]2(C)[C@@H]3C[C@](C)(C(=O)O)CC[C@]3(C)CC[C@]12C [Celastrol] | – | 5.47 | 143 | 4.92 | 142.58 10 × 10^− 6 cm/sec | 5.47 | 4.92 | – | 143 | – | – | – |
| COc1ccc2c(c[n+](C)c3c4cc5c(cc4ccc23)OCO5)c1OC [Chelerythrine chloride] | – | 2.19 | 94.7 | 2.79 | 94.67 10 × 10^− 6 cm/sec | 2.19 | 2.79 | – | – | – | – | – |
| CN1Cc2c(ccc3c2OCO3)[C@@H]2[C@H]1c1cc3c(cc1C[C@@H]2O)OCO3 [Chelidonine] | 75 10^-6 cm/sec | 5.8 | 75 | 7.54 | – | – | – | – | – | – | – | – |
| COc1ccc(/C=C\c2cc(OC)c(OC)c(OC)c2)cc1O [Combretastatin A4] | 316 10^-6 cm/sec | 0.047 | 316 | 0.0277 | 315.59 10 × 10^− 6 cm/sec | 0.047 | 0.028 | – | – | – | – | – |
| COc1cc(C)ccc1O [Creosol] | – | 10.5 | – | – | – | – | – | – | – | 115 10^-6 cm/sec | 115 | 15.3 |
| C[C@H]1COC2=C1C(=O)C(=O)c1c2ccc2c1CCCC2(C)C [Cryptotanshinone] | – | 19.8 | 12 | 21.1 | – | – | – | – | – | – | – | – |
| COC(=O)[C@H]1[C@H]2C[C@@H]3c4[nH]c5ccccc5c4CCN3C[C@H]2C[C@@H](OC(=O)c2cc(OC)c(OC)c(OC)c2)[C@@H]1OC [Deserpidine, reference compound] | 42 10^-6 cm/sec | 16.6 | 42.1 | 11.3 | – | – | – | – | – | – | – | – |
| Cc1c2ccncc2c(C)c2c1[nH]c1ccccc12 [Ellipticine] | >1000 10^-6 cm/sec | 19.6 | – | – | > 1000 10 × 10^− 6 cm/sec | 19.6 | 2.64 | >1000 10^-6 cm/sec | – | – | – | – |

| SMILES | PAMPA-BBB Pe [3] | AC50 [1, 4] [µM] | Papp (in vitro; [5]) [×10⁻⁶ cm/s] | AC50 [2, 6] [µM] | PAMPA-BBB Pe [7] | AC50 [1, 8] [µM] | AC50 [2, 9] [µM] | PAMPA-BBB Pe [5] | Papp (in vitro; [3]) [×10⁻⁶ cm/s] | PAMPA-BBB Pe (PAMPA) | Papp (in vitro) [×10⁻⁶ cm/s] | AC50 ([2]; 48 h, read-out: TNL AC50 (48 hr)) [µM] |
| --- | --- | --- | --- | --- | --- | --- | --- | --- | --- | --- | --- | --- |
| Cc1cc2c(C(C)C)c(O)c(O)c(C=O)c2c(O)c1-c1c(C)cc2c(C(C)C)c(O)c(O)c(C=O)c2c1O [Gossypol] | 393 10^-6 cm/sec | 6.91 | 393 | 7.6 | – | – | – | – | – | – | – | – |
| Cc1nccc2c1[nH]c1ccccc12 [Harmane] | – | – | – | 3.21 | – | 12.2 | 3.21 | – | – | 59.65 10 × 10^− 6 cm/sec | 59.6 | – |
| COc1ccc2c(c1OC)C(=O)O[C@@H]2[C@H]1c2cc3c(cc2CCN1C)OCO3 [Hydrastine] | 57 10^-6 cm/sec | 22.8 | 57.4 | 26.1 | – | – | – | – | – | – | – | – |
| CN1[C@@H](CC(=O)c2ccccc2)CCC[C@H]1C[C@H](O)c1ccccc1 [Lobeline hydrochloride] | – | 22.5 | 31.8 | 9.96 | – | – | – | – | 32 | – | – | – |
| CC1=C[C@H](O)CC(C)(C)[C@H]1/C=C/C(C)=C/C=C/C(C)=C/C=C/C=C(C)/C=C/C=C(C)/C=C/C1=C(C)C[C@@H](O)CC1(C)C [Lutein] | – | 21.1 | 28 | 24.2 | – | – | – | – | – | – | – | – |
| CCCC[C@@H](C)/C=C(C)/C=C(\C)C(=O)NC1=C[C@@](O)(/C=C/C=C/C=C/C(=O)NC2=C(O)CCC2=O)[C@@H]2O[C@@H]2C1=O [ManumycinA] | – | 8.33 | 64 | 6.43 | – | – | – | – | – | – | – | – |
| C=C(C)[C@@]12OC3(c4ccccc4)O[C@@H]1[C@@H]1[C@@H]4O[C@]4(CO)[C@@H](O)[C@]4(O)C(=O)C(C)=C[C@H]4[C@@]1(O3)[C@H](C)[C@H]2OC(=O)/C=C/C=C/c1ccccc1 [Mezerein] | – | 9.41 | 15.6 | 16.3 | – | – | – | – | 16 | – | – | – |
| COc1cc2c(O)c3c(c(-c4ccc5c(c4)OCO5)c2cc1OC)C(=O)OC3 [NCGC00077816-01] | – | 6.51 | 187 | 11 | – | – | – | – | – | – | – | – |
| C=CC(C1=CC(=O)C(OC)=CC1=O)c1ccc(OC)cc1 (centres unmarked) [NCGC00095719-04] | – | 1.33 | 143 | 1.26 | – | – | – | – | 143 | – | – | – |
| COc1ccc(/C=C/C(=O)c2cc(O)ccc2O)cc1 [NCGC00096016-04] | 300 10^-6 cm/sec | 19.8 | 300 | 12.9 | – | – | – | – | – | – | – | – |
| C=C[C@@H](C1=CC(=O)C(OC)=C(OC)C1=O)c1ccccc1 [NCGC00160161-01] | – | 6.54 | 69.8 | 1.07 | – | – | – | – | 70 | – | – | – |
| COc1cc2c(OC(C)=O)c3c(c(-c4ccc5c(c4)OCO5)c2cc1OC)C(=O)OC3 [NCGC00161918-01] | 349 10^-6 cm/sec | 9.92 | 349 | 3.1 | – | – | – | – | – | – | – | – |
| CC[C@@]1(O)C[C@H](O[C@H]2C[C@H](N(C)C)[C@H](O)[C@H](C)O2)c2c(cc3c(c2O)C(=O)c2c(O)ccc(O)c2C3=O)[C@H]1C(=O)OC [NCGC00178933-02] | – | 0.81 | 31.9 | 0.475 | – | – | – | – | 32 | – | – | – |
| CC(=O)O[C@@H]1C[C@@]2(C)[C@H](c3ccoc3)C[C@H]3O[C@]32[C@]2(C)C(=O)C(O)=C3C(C)(C)C(=O)C=C[C@]3(C)C12 (some centres unmarked) [NCGC00179158-03] | – | 2.35 | 17.6 | 2.77 | – | – | – | – | 18 | – | – | – |
| COc1cc(O)c2c(c1)C1OC1C[C@H](O)[C@H](O)C(=O)C=CC[C@H](C)OC2=O (some centres unmarked) [NCGC00183677-03] | 69 10^-6 cm/sec | 28.2 | 69.3 | 35.9 | – | – | – | – | – | – | – | – |
| COc1ccc(-c2coc3c(O)c(O)c(OC)cc3c2=O)cc1 [NCGC00264029-02] | 40 10^-6 cm/sec | 25.6 | 40.1 | 30.1 | – | – | – | – | – | – | – | – |
| Cc1c(O)c(O)cc2c1CC=C1[C@@]2(C)CC[C@@]2(C)[C@H]3C[C@](C)(C(=O)O)CC[C@]3(C)CC[C@]12C [NCGC00264082-02] | 288 10^-6 cm/sec | 4.3 | 288 | 2.37 | – | – | – | – | – | – | – | – |
| O=c1cc(N2CCOCC2)oc2c(-c3cccc4c3sc3ccccc34)cccc12 [NU-7441, 8-(4-DIBENZOTHIENYL)-2-(4-MORPHOLINYL)-4H-1-BENZOPYRAN-4-ONE, reference compound] | – | 7.6 | 102 | 2.85 | 101.9 10 × 10^− 6 cm/sec | 7.6 | 2.85 | – | – | – | – | – |
| Oc1ccc(C2=Cc3ccc(O)cc3OC2)cc1 [Phenoxodiol] | – | 4.33 | 145 | 8.86 | – | – | – | – | – | – | – | – |
